The target of this assay is Peptidyl-prolyl cis-trans isomerase NIMA-interacting 1 (Homo sapiens, UniProt Q13526, S16A/Y23A). The assay is described as follows: Binding affinity to N-terminal MBP fused and Texas-red-labeled full-length human Pin1 S16A/Y23A mutant expressed in Escherichia coli assessed as increase in fluorescence anisotropy by spectrofluorimetry. The note with it: read-out: Kd.

Our source for the Kd values is ChEMBL document CHEMBL3588828, “A Selective, Cell-Permeable Nonphosphorylated Bicyclic Peptidyl Inhibitor against Peptidyl-Prolyl Isomerase Pin1” (J Med Chem, 2015).

Sequence of Peptidyl-prolyl cis-trans isomerase NIMA-interacting 1 (Q13526 whole entry S16A/Y23A, the tested form may be a part): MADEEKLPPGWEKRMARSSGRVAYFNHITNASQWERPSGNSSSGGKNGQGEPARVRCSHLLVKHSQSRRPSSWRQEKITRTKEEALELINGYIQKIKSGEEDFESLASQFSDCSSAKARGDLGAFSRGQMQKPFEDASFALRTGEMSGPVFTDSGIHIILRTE

With `C[C@@H]1NC(=O)[C@H](CCCNC(=N)N)NC(=O)[C@H](Cc2ccc3ccccc3c2)NC(=O)[C@H]2CCCCN2C(=O)[C@@H](CC(=O)O)NC(=O)CN(C)C(=O)[C@@H]2CCCN2C(=O)c2cc3cc(c2)C(=O)NC[C@H](NC(=O)[C@@H](C)NC1=O)C(=O)N[C@@H](Cc1ccccc1)C(=O)N[C@@H](Cc1ccc2ccccc2c1)C(=O)N[C@@H](CCCNC(=N)N)C(=O)N[C@@H](CCCNC(=N)N)C(=O)N[C@@H](CCCNC(=N)N)C(=O)N[C@@H](CCCNC(=N)N)C(=O)N[C@H](C(=O)N[C@@H](CCCCN)C(=O)O)CNC3=O` (stereo in doubt; 3), the dissociation constant Kd came to 870 nM.
The same measure for `C[C@H]1NC(=O)[C@H](CCCNC(=N)N)NC(=O)[C@H](CCCNC(=N)N)NC(=O)[C@H](Cc2ccc3ccccc3c2)NC(=O)[C@H]2CCCCN2C(=O)[C@@H](CC(=O)O)NC(=O)CN(C)C(=O)[C@@H]2CCCN2C(=O)c2cc3cc(c2)C(=O)NC[C@H](NC1=O)C(=O)N[C@@H](Cc1ccccc1)C(=O)N[C@@H](Cc1ccc2ccccc2c1)C(=O)N[C@@H](CCCNC(=N)N)C(=O)N[C@@H](CCCNC(=N)N)C(=O)N[C@@H](CCCNC(=N)N)C(=O)N[C@@H](CCCNC(=N)N)C(=O)N[C@H](C(=O)N[C@@H](CCCCN)C(=O)O)CNC3=O`: 720 nM.
Turning to `C[C@@H]1NC(=O)[C@H](CCCNC(=N)N)NC(=O)[C@H](Cc2ccc3ccccc3c2)NC(=O)[C@H]2CCCCN2C(=O)[C@@H]([C@H](C)O)NC(=O)[C@H](Cc2ccc(F)cc2)NC(=O)[C@@H](Cc2ccccc2)NC(=O)c2cc3cc(c2)C(=O)NC[C@@H](C(=O)N[C@@H](CCCCN)C(=O)O)NC(=O)[C@H](CCCNC(=N)N)NC(=O)[C@H](CCCNC(=N)N)NC(=O)[C@H](CCCNC(=N)N)NC(=O)[C@H](CCCNC(=N)N)NC(=O)[C@H](Cc2ccc4ccccc4c2)NC(=O)[C@H](Cc2ccccc2)NC(=O)[C@H](CNC3=O)NC1=O`, the equilibrium dissociation constant (Kd) was 900 nM.
The same measure for `C[C@@H]1NC(=O)[C@H](CCCNC(=N)N)NC(=O)[C@H](Cc2ccc3ccccc3c2)NC(=O)[C@H]2CCCCN2C(=O)[C@@H]([C@H](C)O)NC(=O)[C@H](Cc2cnc[nH]2)NC(=O)[C@@H](Cc2ccccc2)NC(=O)c2cc3cc(c2)C(=O)NC[C@H](NC(=O)[C@@H](C)NC1=O)C(=O)N[C@@H](Cc1ccccc1)C(=O)N[C@@H](Cc1ccc2ccccc2c1)C(=O)N[C@@H](CCCNC(=N)N)C(=O)N[C@@H](CCCNC(=N)N)C(=O)N[C@@H](CCCNC(=N)N)C(=O)N[C@@H](CCCNC(=N)N)C(=O)N[C@H](C(=O)N[C@@H](CCCCN)C(=O)O)CNC3=O`: 1680 nM; for `C[C@@H]1NC(=O)[C@H](CCCNC(=N)N)NC(=O)[C@H](Cc2ccc3ccccc3c2)NC(=O)[C@H]2CCCCN2C(=O)[C@@H]([C@H](C)O)NC(=O)[C@H](Cc2ccc(F)cc2)NC(=O)[C@@H](Cc2ccccc2)NC(=O)c2cc3cc(c2)C(=O)NC[C@H](NC(=O)[C@@H](C)NC1=O)C(=O)N[C@@H](Cc1ccccc1)C(=O)N[C@@H](Cc1ccc2ccccc2c1)C(=O)N[C@@H](CCCNC(=N)N)C(=O)N[C@@H](CCCNC(=N)N)C(=O)N[C@@H](CCCNC(=N)N)C(=O)N[C@@H](CCCNC(=N)N)C(=O)N[C@H](C(=O)N[C@@H](CCCCN)C(=O)O)CNC3=O`: 670 nM.
As for `C[C@@H]1NC(=O)[C@H](CCCNC(=N)N)NC(=O)[C@H](Cc2ccc3ccccc3c2)NC(=O)[C@H]2CCCCN2C(=O)[C@@H]([C@H](C)O)NC(=O)[C@H](Cc2ccc(F)cc2)NC(=O)[C@@H](Cc2ccccc2)NC(=O)c2cc3cc(c2)C(=O)NC[C@H](NC(=O)[C@@H](Cc2ccccc2)NC1=O)C(=O)N[C@@H](CCCNC(=N)N)C(=O)N[C@@H](Cc1ccc2ccccc2c1)C(=O)N[C@@H](CCCNC(=N)N)C(=O)N[C@@H](Cc1ccccc1)C(=O)N[C@@H](CCCNC(=N)N)C(=O)N[C@@H](CCCNC(=N)N)C(=O)N[C@H](C(=O)N[C@@H](CCCCN)C(=O)O)CNC3=O`, the figure is 450 nM.
